# Key:
# [1] = system: Streptococcus spp. spontaneous mutants; details: S. pneumoniae ATCC 49619; CLSI QC range shown in parentheses; cited from earlier work
# [2] = system: Streptococcus spp. spontaneous mutants; experiment: organism not typed; assay type: cell-based
# Procedure, shortened: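 Spontaneous mutants from drug selection plates were tested by CLSI broth microdilution in MHB II with two-fold serial drug dilutions. Inoculum was about 5×10^5 CFU/mL, incubated aerobically at 35° C. for 18-20 hr. MIC was the lowest concentration inhibiting visible growth.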
# [3] = system: E. coli spontaneous mutants; experiment: Broth microdilution MIC of spontaneous mutants; assay type: cell-based, Escherichia coli
# Procedure: Select isolates were subcultured onto agar containing drug at the selection concentration, were identified by MALDI, and were frozen for broth microdilution MIC testing as described below.
# To determine whether colonies growing on drug selection plates had elevated MIC values to the selecting antibiotic, susceptibility testing by broth microdilution was conducted on isolated mutants following methodology recommended by CLSI (1), (2), and (3) “Performance Standards for Antimicrobial Susceptibility Testing; Twenty-Eighth Informational Supplement.,” CLSI document M100-S28, 2018.
# All wells in columns 2 through 12 of a standard 96-well microdilution plate (Costar 3795) were filled with 150 μL of the appropriate diluent. Then, 300 μL of the test agents were added to the wells of column 1 of the plates at […] the highest final concentration to be tested. Serial two-fold dilutions were made across the rows through column 11 using the Biomek 2000. The wells of column 12 contained no drug and served as the growth control wells. This plate served as the “mother plate” from which selected MIC assay plates or “daughter plates” were made.
# 2 μL of drug solution from each well of a mother plate was added to each corresponding well of the daughter plate in a single step. A standardized inoculum of each aerobic test organism was prepared per CLSI methods to equal a 0.5 McFarland standard, followed by a dilution of 1:20 in MHB II. The plates were then inoculated with 10 μL of the diluted inoculum using the Biomek 2000 from low to high drug concentration, resulting in a final concentration of approximately 5×10^5 CFU/mL. An un-inoculated plate was incubated for the purpose of assessing solubility of the drug in the test media.
# The plates for the aerobic tests were stacked 3-4 high, covered with a sterile lid on the top plate, and incubated aerobically at 35° C. for 18-20 hr. The MIC was recorded as the lowest concentration of drug that inhibited visible growth of the organism.
# [4] = system: E. coli spontaneous mutants; details: E. coli ATCC 25922; CLSI QC range shown in parentheses; cited from earlier work
smiles,measurement,setting,value
CN(C)[C@@H]1C(O)=C(C(N)=O)C(=O)[C@@]2(O)C(O)=C3C(=O)c4c(O)cccc4[C@@](C)(O)[C@H]3C[C@@H]12 [TET],"MIC, CLSI QC range",[1],(0.06-0.5) μg/mL
same,MIC,"[2]; S. agaloctiae ATCC 13813, selected on rifaximin 4X MIC, Colony A",0.12 µg/mL
same,MIC,"[2]; S. agaloctiae ATCC 13813, selected on rifaximin 4X MIC, Colony B",0.12 µg/mL
same,MIC,"[2]; S. agaloctiae ATCC 13813, selected on rifaximin 8X MIC, Colony A",0.12 µg/mL
same,MIC,"[2]; S. agaloctiae ATCC 13813, selected on rifaximin 8X MIC, Colony B",0.25 µg/mL
same,MIC,[2]; S. agaloctiae ATCC 13813 Parent,0.12 µg/mL
same,MIC,"[2]; S. pneumoniae ATCC 49619, selected on rifaximin 4X MIC, Colony A",0.06 µg/mL
same,MIC,"[2]; S. pneumoniae ATCC 49619, selected on rifaximin 4X MIC, Colony B",0.06 µg/mL
same,MIC,"[2]; S. pneumoniae ATCC 49619, selected on rifaximin 8X MIC, Colony A",0.06 µg/mL
same,MIC,"[2]; S. pneumoniae ATCC 49619, selected on rifaximin 8X MIC, Colony B",0.06 µg/mL
same,MIC,[2]; S. pneumoniae ATCC 49619 Parent,0.12 µg/mL
same,MIC,"[2]; S. pyogenes ATCC 49399, selected on rifaximin 4X MIC, Colony A",0.12 µg/mL
same,MIC,"[2]; S. pyogenes ATCC 49399, selected on rifaximin 4X MIC, Colony B",0.12 µg/mL
same,MIC,"[2]; S. pyogenes ATCC 49399, selected on rifaximin 8X MIC, Colony A",0.12 µg/mL
same,MIC,"[2]; S. pyogenes ATCC 49399, selected on rifaximin 8X MIC, Colony B",0.12 µg/mL
same,MIC,[2]; S. pyogenes ATCC 49399 Parent,0.12 µg/mL
same,MIC,"[3]; E. coli ATCC 25922, selected on rifaximin 4X MIC, Colony A",0.5 µg/mL
same,MIC,"[3]; E. coli ATCC 25922, selected on rifaximin 4X MIC, Colony B",1 µg/mL
same,MIC,"[3]; E. coli ATCC 25922, selected on rifaximin 8X MIC, Colony A",1 µg/mL
same,MIC,"[3]; E. coli ATCC 25922, selected on rifaximin 8X MIC, Colony B",1 µg/mL
same,MIC,[3]; E. coli ATCC 25922 Parent (Table 52),1 µg/mL
same,MIC,"[3]; E. coli ATCC 35218, selected on rifaximin 4X MIC, Colony A",2 µg/mL
same,MIC,"[3]; E. coli ATCC 35218, selected on rifaximin 4X MIC, Colony B",1 µg/mL
same,MIC,"[3]; E. coli ATCC 35218, selected on rifaximin 8X MIC, Colony A",0.5 µg/mL
same,MIC,"[3]; E. coli ATCC 35218, selected on rifaximin 8X MIC, Colony B",2 µg/mL
same,MIC,[3]; E. coli ATCC 35218 Parent (Table 52),1 µg/mL
same,MIC,"[3]; E. coli MMX 1312, selected on ceftriaxone 4X MIC, Colony A",>16 µg/mL
same,MIC,"[3]; E. coli MMX 1312, selected on ceftriaxone 4X MIC, Colony B",>16 µg/mL
same,MIC,"[3]; E. coli MMX 1312, selected on ceftriaxone 4X MIC, Colony C",>16 µg/mL
same,MIC,"[3]; E. coli MMX 1312, selected on ceftriaxone 8X MIC, Colony A",>16 µg/mL
same,MIC,"[3]; E. coli MMX 1312, selected on ceftriaxone 8X MIC, Colony B",>16 µg/mL
same,MIC,"[3]; E. coli MMX 1312, selected on ceftriaxone 8X MIC, Colony C",>16 µg/mL
same,MIC,"[3]; E. coli MMX 1312, selected on rifaximin 4X MIC, Colony A",>16 µg/mL
same,MIC,"[3]; E. coli MMX 1312, selected on rifaximin 4X MIC, Colony B",>16 µg/mL
same,MIC,"[3]; E. coli MMX 1312, selected on rifaximin 8X MIC, Colony A",>16 µg/mL
same,MIC,"[3]; E. coli MMX 1312, selected on rifaximin 8X MIC, Colony B",>16 µg/mL
same,MIC,[3]; E. coli MMX 1312 Parent,>16 µg/mL
same,MIC,[3]; E. coli MMX 1312 Parent (Table 49),>16 µg/mL
same,MIC,[3]; E. coli MMX 1312 Parent (Table 52),>16 µg/mL
same,MIC,"[3]; E. coli MMX 1312 mutant selected on meropenem 4X MIC, colony A",>16 µg/mL
same,MIC,"[3]; E. coli MMX 1312 mutant selected on meropenem 4X MIC, colony B",>16 µg/mL
same,MIC,"[3]; E. coli MMX 1312 mutant selected on meropenem 4X MIC, colony C",4 µg/mL
same,MIC,"[3]; E. coli MMX 1312 mutant selected on meropenem 8X MIC, colony A",>16 µg/mL
same,MIC,"[3]; E. coli MMX 1312 mutant selected on meropenem 8X MIC, colony B",>16 µg/mL
same,MIC,"[3]; E. coli MMX 1312 mutant selected on meropenem 8X MIC, colony C",>16 µg/mL
same,"MIC, CLSI QC range",[4],(0.5-2) μg/mL
